Values quoted from earlier work, collected in patent US20190381039A1, “USE OF sGC STIMULATORS FOR THE TREATMENT OF ESOPHAGEAL MOTILITY DISORDERS” (Cyclerion Therapeutics, Inc., priority 2016, published 2019).

Key:
[1] = tested on: patients with esophageal motility abnormalities
[2] = tested on: patients with idiopathic achalasia
[3] = report from 2000, patients with esophageal dysmotility

Row | SMILES | relief of chest pain [1] | utility in achalasia patients (off label) ([2]; Bortolotti et al., Gastroenterology 118(2): 253-7, 2000) | side effects reported by patients ([2]; report from 2000) | LES pressure [2, 3] | clinical symptoms [2, 3]
1 | CN(C)CCCN1c2ccccc2CCc2ccccc21 [imipramine] | effective in relieving chest pain | – | – | – | –
2 | CCCc1nn(C)c2c(=O)[nH]c(-c3cc(S(=O)(=O)N4CCN(C)CC4)ccc3OCC)nc12 [sildenafil] | – | some limited utility | dizziness and headaches | able to reduce LES pressure | clinical symptoms were not improved
3 | O=c1n(CCCN2CCN(c3cccc(Cl)c3)CC2)nc2ccccn12 [trazodone] | effective in relieving chest pain | – | – | – | –
